Assay results taken from US7745651B2, “Cationic lipids and methods of use” (Protiva Biotherapeutics, Inc., priority 2004, dated 2010).

Tests used:
[1] = Nucleic acid encapsulation in SNALP, RiboGreen fluorescence assay; format: physicochemical; details: SNALP DSPC:Chol:PEG-C-DMA:Cationic Lipid 20:48:2:30 molar percent, siRNA; mean of 3 experiments, error is standard deviation
Procedure: (§1) SNALP Preparation: SNALP with a lipid composition of DSPC:Chol:PEG-C-DMA:Cationic Lipid (20:48:2:30 molar percent) were prepared using the spontaneous vesicle formation by ethanol dilution method [Jeffs et al., Pharm. Res. In Press (2005)]. The sample's were diafiltered against 100 mL of PBS (20 wash volumes) using a cross flow ultrafiltration cartridge (Amersham Biosciences, Piscataway, N.J.) and sterile filtered through Acrodisc 0.2 μm Posidyne filters (Pall Corp., Ann Arbor, Mich.). The siRNA concentration of final samples was determined using the RiboGreen assay and a siRNA standard curve. Particle size and polydispersity was determined using a Malvern Instruments Zetasizer 3000HSA (Malvern, UK). Nucleic acid encapsulation was determined using a RiboGreen assay, comparing fluorescence in the presence and absence of Triton X-100. RiboGreen fluorescence was measured using a Varian Eclipse Spectrofluorometer (Varian Inc) with λex=500 nm, λem=525 nm.
(§2) This example sets forth the physical properties of the SNALP formulations described herein. SNALP containing the various cationic lipids were prepared as described and encapsulated RNA and particle size assessed (Table 1 below). […] Polydispersity of all formulations was low, indicating a narrow distribution of particle size. RNA encapsulation in the final particles was 84-85% of the total.
(§3) Percentage Encapsulation was determined using the RiboGreen fluorescence assay to measure the amount of encapsulated nucleic acid relative to the total nucleic acid present. Particle diameter and polydispersity was measured using a Malvern Zetasizer. Values are the mean of 3 separate experiments, the error is standard deviation.

[2] = SNALP particle diameter and polydispersity, Malvern Zetasizer; format: physicochemical; details: SNALP DSPC:Chol:PEG-C-DMA:Cationic Lipid 20:48:2:30 molar percent; mean of 3 experiments, error is standard deviation
Procedure: as §1, §2, §3

[3] = tested on: luciferase expression in Neuro2A-G cells (Neuro2A cells stably transfected to express luciferase); assay: In vitro transfection: luciferase gene silencing by SNALP encapsulating anti-luciferase siRNA; format: cell-based; details: for luciferase expression relative to untreated control: after 48 hours
Procedure: In vitro Transfection: Cells were cultured in MEM (Invitrogen) containing 10% fetal bovine serum (FBS) (CanSera) and 0.25 mg/mL G418 (Invitrogen). Neuro2A-G cells (Neuro2A cells stably transfected to express luciferase [R. E. Kingston. in Current Protocols in Molecular Biology, Vol. 2, pp. 9.1.4-9.1.9, John Wiley & Sons, Inc. (1997)]) were plated at a concentration of 4×10^4 cells per well in 24-well plates and grown overnight. Cells were treated with SNALP at doses of 0.0625-1.0 μg/mL nucleic acid (AntiLuc Active or Mismatch Control) and incubated for 48 hours at 37° C. and 5% CO2. Cells were then washed with PBS and lysed with 200 μL 250 mM sodium phosphate containing 0.1% Triton X-100. The luciferase activity for each well was determined using Luciferase Reagent (Promega) and a standard luciferase protein (Roche). The luminescence for each was measured using a Berthold MicroLumatPlus LB96V plate luminometer. The resulting luciferase activity was then normalized for the amount of protein using the Micro BCA assay kit (Pierce). Luciferase knockdown relative to a control was then determined for each system.
This example describes experiments comparing expression of nucleic acids following in vitro transfection of Neuro2A cells with SNALP comprising: (1) DODAC, DODMA, or DLinDMA; (2) PEG-C-DMA; and (3) an siRNA duplex directed against luciferase encapsulated in the SNALP (i.e., siRNA comprising the following sequence: […] (SEQ ID NO:1) and targeting the DNA sequence complementary to: […] (SEQ ID NO:3)). Neuro2A cells were stably transfected with a plasmid encoding luciferase under the control of the CMV promoter (pLO55). The stably transfected cells were then transfected with SNALP comprising: 15, 20, 25, 30, 35, or 40% of DODAC, DODMA, or DLinDMA; 2% PEG-C-DMA, and an siRNA duplex directed against luciferase encapsulated in the SNALP. Luciferase protein expression was measured 48 hours after transfection with SNALP.
The ability of SNALP containing each of the four cationic lipids (i.e., DSDMA, DODMA, DLinDMA, and DLenDMA) to effect gene silencing in stably transfected Neuro2A cells was evaluated. Neuro2A cells stably transfected to express the luciferase were treated with SNALP containing anti-luciferase siRNA for 48 hours. Gene-silencing efficiency was evaluated by comparing the remaining luciferase activity in these cells to that remaining in cells treated with control SNALP containing mismatch siRNA.

[4] = TNS assay, apparent pKa of cationic lipid incorporated in SNALP; details: TNS fluorescence, pH varied from 4.5 to 9.5
Procedure: TNS Assay: 20 μM of SNALP lipid and 6 μM of TNS were mixed in a fluorescence cuvette in 2 mL of 20 mM sodium phosphate, 25 mM citrate, 20 mM ammonium acetate and 150 mM NaCl, at a pH that was varied from 4.5 to 9.5. Fluorescence was determined at each pH using a Varian Eclipse Spectrofluorometer (Varian Inc) with settings of λex=322 nm, λem=431 nm. Fluorescence for each system at the various pH was then normalized to the value at pH 4.5. The pKa values are the point at which 50% of the molecules present are charged. By assuming that minimum fluorescence represents zero charge, and maximum fluorescence represents 100% charge, pKa can be estimated by measuring the pH at the point exactly half way between the values of minimum and maximum charge.
TNS is electrostatically attracted to positively charged membranes. Subsequent adsorption to the lipid membrane results in the immediate environment of the TNS becoming more lipophilic, removing the water molecules that otherwise quench TNS fluorescence. Since TNS is more readily absorbed by positively charged membranes, TNS fluorescence is an indicator of positive membrane surface charge. The surface pKa values of each SNALP formulation were determined by varying the local pH in the presence of TNS.

[5] = SNALP with anti-luciferase siRNA

CCCCC/C=C\C/C=C\CCCCCCCCOCC(CN(C)C)OCCCCCCCC/C=C\C/C=C\CCCCC (centres unmarked) [DLinDMA, 1,2-DiLinoleyloxy-N,N-dimethylaminopropane]
% Encapsulation [1]: 84 ± 3% | Diameter (nm) [2]: 140 ± 6 nm | Polydispersity [2]: 0.11 ± 0.02 | knockdown in gene expression (luciferase) versus control SNALP containing mismatch siRNA ([3]; Neuro2A cells stably expressing luciferase, SNALP with anti-luciferase siRNA, 48 hours): 80% | reduction of luciferase expression compared with SNALP comprising DODAC or DODMA ([3]; SNALP with 30% cationic lipid, 2% PEG-C-DMA, anti-luciferase siRNA, 48 hours after transfection): more effective in reducing luciferase expression | luciferase expression relative to untreated control [3, 5]: 21%

CCCCCCCCCCCCCCCCCC[N+](C)(C)CCCCCCCCCCCCCCCCCC [DODMA, dioctadecyldimethylammonium]
% Encapsulation [1]: 84 ± 1% | Diameter (nm) [2]: 137 ± 4 nm | Polydispersity [2]: 0.12 ± 0.01 | luciferase expression relative to untreated control [3, 5]: 54% | apparent (surface) pKa of cationic lipid in SNALP [4]: 7.0
